In US8414883B2, “Parvovirus cancer therapy and combination with chemotherapy” (priority 2007, dated 2013):
Entries after “also recorded” stand apart in the source; their conditions may differ. Read-outs that look alike come from different tables or passages of the source.

How the values were obtained:
[1] = tested on: intrapancreatic HA-RPC tumors; experiment: Survival of PDAC-bearing rats after combined gemcitabine and H-1PV; type: in vivo, Lewis rats; conditions: vs. mock treatment or gemcitabine monotherapy
Experimental: Animal survival was monitored over a period of 100 days and is presented as Kaplan-Meyer curves, with the median survival and P values indicated below.
Male Lewis rats (Janvier, Le Genest Saint Isle, France) weighing 180-200 g were used for pancreatic carcinoma implantation. 5.10^6 HA-RPC cells were injected in the pancreatic parenchyma. Tumor progression is confined to the pancreatic tail for the first 3 weeks after implantation, leading to lymph node invasion during the 4th week. Liver metastases appear at weeks 5-6 and death with lung metastasis occurs within weeks 6-9.[17] Animals were kept under conventional conditions (temperature 22±2° C., relative humidity 55±10%, dark-light rhythm of 12 hr) with unrestricted access to a balanced pellet diet and water. Animal experiments were performed according to the French and European Community directives for animal care (number 86/609/EEC of Nov. 24, 1986). […]
Mean and standard deviations from triplicate in vitro experiments were calculated. Difference in tumour volume, determined in vivo through mCT-scan size measurements, was tested using a one-way analysis of variance followed by a parametric Student's unpaired t test as Bartlett's test indicated homogeneity of variance. […] The survival curves were generated using the Kaplan-Meier method, and the differences between the curves were assessed by the log-rank test. […]

[2] = tested on: SU86.86 cells; experiment: MTT cytotoxicity of H-1PV, gemcitabine and their combination, SU86.86; type: cell-based, human
Experimental: (§1) Survival was measured using MTT assays performed 72 h after infection, in comparison with mock-treated cultures (100%), and is inversely expressed as cell death rate. The data presented are means from 3 independent experiments carried out in quadruplicates.
(§2) For cytotoxicity assessment, cells were seeded in 96-well plates at a density of 2×10^3 cells per well and treated as indicated in the Figure Legends. Cell viability was determined by the colorimetric MTT (3-(4,5-dimethylthiazolyl-2)-2,5-diphenyltetrazolium bromide) assay, as recommended by the manufacturer (Sigma, Deisenhofen, Germany).
(§3) Means and standard deviations (SD) were calculated from triplicate in vitro experiments. […] The isobologram was created from the data obtained for the combination of the two agents. […] CI=1 represents the conservation isobologram and indicates additive effects. CI values below 1 indicate higher than the expected additive effect (synergy).

[3] = tested on: HA-RPC cells; experiment: MTT cytotoxicity on rat PDAC cells; type: cell-based; conditions: compared with the human PDAC cells
Experimental: as §2

[4] = tested on: MiaPaCa-2 cells; experiment: MTT cytotoxicity of H-1PV, gemcitabine and their combination, MiaPaCa-2; type: cell-based, human
Experimental: as §1, §2, §3

[5] = tested on: Panc-1 cells; experiment: MTT cytotoxicity of H-1PV, gemcitabine and their combination, Panc-1; type: cell-based; conditions: Homo sapiens
Experimental: as §1, §2, §3

[6] = tested on: Colo357 cells; experiment: MTT cytotoxicity of H-1PV, gemcitabine and their combination, Colo357; type: cell-based; conditions: Homo sapiens
Experimental: as §1, §2, §3

[7] = tested on: BxPC3 cells; experiment: MTT cytotoxicity of H-1PV, gemcitabine and their combination, BxPC3; type: cell-based; conditions: Homo sapiens
Experimental: as §1, §2, §3

[8] = tested on: T3M-4 cells; experiment: MTT cytotoxicity of H-1PV, gemcitabine and their combination, T3M-4; type: cell-based, human
Experimental: as §1, §2, §3
Drug sensitivity of parental and resistant cells was assessed in both MTT and clonogenic survival assays.

[9] = Toxicological assessment of blood markers in PDAC-bearing rats; type: in vivo, Lewis rats; conditions: rat model
Experimental: Blood samples were analyzed for: (A) red blood cell (RBC), platelet, and white blood cell (WBC) counts and related parameters; (B) liver (aspartate amino transferase [ASAT], alanine amino transferase [ALAT]) and kidney (Creatinine) markers. The data shown are means with SD bars.
H-1PV was inoculated intratumorally (i.t.). Blood samples were taken from animal tail vein 2 weeks after the last therapeutic treatment. Toxicological markers were assayed in Strasbourg University Hospital using automated clinical laboratory analysis (Biochemical multiparametric device Biochime ADVIA 160, Siemens, Cergy Pontoise, France).

[10] = tested on: U373MG cells; experiment: MTT survival of U373MG cells; type: cell-based, human; conditions: U373; 6 days; H-1PV 5 pfU/cell, 25 μM TMZ
Experimental: The percentage of surviving U373MG cells [%] 3 days (A) and 6 days (B) after treatment with H-1PV (Virus), combined treatment with H-1PV and TMZ (V+TMZ), and treatment with TMZ only (TMZ) is shown.
(§4) Initially, the rates of survival of the cell lines used in the study were determined using MTT assays in order to check whether these cell lines are sensitive for H-1PV infection and Temozolomide (TMZ) treatment. In addition, the rates of survival after combined treatment with H-1PV and TMZ were determined. […] The graphs of FIGS. 7-11 depict the results after 3 and 6 days, respectively. After 3 days of treatment distinct effects can already be observed. After 6 days the experiments were terminated since control cells were already confluent. In addition, after 6 days further analyses could not be carried out due to the very low rate of survival (depending on the particular cell line).

[11] = tested on: U87MG cells; experiment: MTT survival of U87MG cells; type: cell-based, human; conditions: 3 days, H-1PV 5 pfU/cell, 25 μM TMZ
Experimental: The percentage of surviving U87MG cells [%] 3 days (A) and 6 days (B) after treatment with H-1PV (Virus), combined treatment with H-1PV and TMZ (V+TMZ), and treatment with TMZ only (TMZ) is shown.
as §4

[12] = tested on: U343MG cells; experiment: MTT survival of U343MG cells; type: cell-based, human; conditions: U343; 6 days; H-1PV 5 pfU/cell, 25 μM TMZ
Experimental: The percentage of surviving U343MG cells [%] 3 days (A) and 6 days (B) after treatment with H-1PV (Virus), combined treatment with H-1PV and TMZ (V+TMZ), and treatment with TMZ only (TMZ) is shown.
as §4

In the case of `Nc1ccn([C@@H]2O[C@H](CO)[C@@H](O)C2(F)F)c(=O)n1` [gemcitabine], the “survival of PDAC-bearing rats” value [1] is reported as “transient protection”, the EC50 ([2]; Homo sapiens, SU.86.86, read-out: EC50 gemcitabine monotherapy (in brackets)) is reported as 2.5 ng/mL and the “EC75 comb. 1 gemcitabine” value ([2]; SU86.86, combined with H-1PV MOI 1) is reported as 8.0 ng/mL. For the same compound, the “EC75 comb. 2 gemcitabine” value ([2]; SU86.86, combined with H-1PV MOI 10) was 1.3 ng/mL, the EC75 mono. gemcitabine ([2]; SU86.86, gemcitabine alone, MTT) was 17 ng/mL and the “sensitivity to virus and gemcitabine toxicity” value [3] was “same range of sensitivity”. The EC50 ([4]; Homo sapiens, MIA PaCa-2, read-out: EC50 gemcitabine monotherapy (in brackets)) was 9 ng/mL, the “EC75 comb. 1 gemcitabine” value ([4]; MiaPaCa-2, combined with H-1PV MOI 1) was 18 ng/mL and the “EC75 comb. 2 gemcitabine” value ([4]; MiaPaCa-2, combined with H-1PV MOI 10) was 2.0 ng/mL. It also gave an EC75 mono. gemcitabine ([4]; MiaPaCa-2, gemcitabine alone, MTT) of 30 ng/mL, an EC50 ([5]; PANC-1, read-out: EC50 mono. gemcitabine) of 400 ng/mL and an EC50 ([5]; read-out: EC50 comb. 1 gemcitabine, Panc-1, combined with H-1PV MOI 1) of 200 ng/mL. For the same compound, the EC50 ([5]; read-out: EC50 comb. 2 gemcitabine, Panc-1, combined with H-1PV MOI 10) was 60 ng/mL, the EC50 ([6]; COLO357, read-out: EC50 mono. gemcitabine) was 1.5 ng/mL and the EC50 ([6]; read-out: EC50 comb. 1 gemcitabine, Colo357, combined with H-1PV MOI 1) was 1.3 ng/mL. For the same compound, the EC50 ([6]; read-out: EC50 comb. 2 gemcitabine, Colo357, combined with H-1PV MOI 10) was 0.6 ng/mL, the EC50 ([7]; BXPC-3, read-out: EC50 comb. 1 gemcitabine, BxPC3, combined with H-1PV MOI 1) was 20 ng/mL and the EC50 ([7]; BXPC-3, read-out: EC50 comb. 2 gemcitabine, BxPC3, combined with H-1PV MOI 10) was 7 ng/mL. For the same compound, the EC50 ([7]; BXPC-3, read-out: EC50 mono. gemcitabine) was 25 ng/mL, the EC50 ([8]; Homo sapiens, T3M4, read-out: EC50 gemcitabine monotherapy (in brackets)) was 1.2 ng/mL and the “EC75 comb. 1 gemcitabine” value ([8]; T3M-4, combined with H-1PV MOI 1) was 2.4 ng/mL. The “EC75 comb. 2 gemcitabine” value ([8]; T3M-4, combined with H-1PV MOI 10) was 1.5 ng/mL, the EC75 mono. gemcitabine ([8]; T3M-4, gemcitabine alone, MTT) was 2.5 ng/mL and the “bilirubin, ASAT, and ALAT levels” value ([9]; 2 weeks after last treatment) was “elevated”. For the same compound, the “reticulocyte and monocyte levels” value ([9]; 2 weeks after last treatment) was “drop” and the Creatinine levels ([9]; kidney clearance) was “remained stable”.

For `Cn1nnc2c(C(N)=O)ncn2c1=O` [TMZ, Temozolomide], the “cells lysed / cytotoxic effect” value [10] was “no cytotoxic effect; also recorded: did not result in cell death”, the “cells lysed / killed” value [11] was “about 20%” and the cells killed [12] was “more than 80%”.
